How the values were obtained:
chronic HBV infections = test: Preclinical studies: clearance of chronic HBV infection in different models
[1] = Phase I dose-escalation study (NCT03585322) in chronic hepatitis B patients: safety; type: in vivo, human
Method: (§1) Methods: This study (NCT number: NCT03585322) is a multi-center, single-agent, open-label, Phase I dose-escalation study. Chronic hepatitis B (CHB) patients without receiving anti-HBV treatment within 6 months before screening were recruited and administrated with Compound (I) weekly via intravenous infusion (IV) in 4 escalated dosage (7 mg, 12 mg, 20 mg and 30 mg) for 4 weeks followed with 12 weeks follow up. The primary objective of this study is to assess the safety, with secondary outcome measures focused on pharmacokinetics (PK) and Pharmacodynamics (PD) of Compound (I) as monotherapy in CHB patients.

[2] = Phase I dose-escalation study (NCT03585322) in chronic hepatitis B patients: other findings (Fibro test score, ALT normalization); type: in vivo, human; conditions: for Fibro Test Score Changes from baseline to end of follow-up, Mean(SD): 12 weeks follow up
Method: as §1

[3] = Phase I dose-escalation study (NCT03585322) in chronic hepatitis B patients: pharmacokinetics; type: in vivo, human
Method: as §1

[4] = tested on: IAPs (inhibitor of apoptosis proteins); test: Preclinical studies: IAP inhibition in vivo and in vitro
hepatitis B virus (HBV) = test: Phase I dose-escalation study (NCT03585322) in chronic hepatitis B patients: pharmacodynamics (HBsAg, HBV DNA); type: in vivo, human
Method: as §1

[5] = 7 mg weekly IV for 4 weeks, n = 3 CHB patients
[6] = 12 mg weekly IV for 4 weeks, n = 9 CHB patients
[7] = 20 mg weekly IV for 4 weeks, N = 6 CHB patients
[8] = 30 mg weekly IV for 4 weeks, N = 6 CHB patients

## CN[C@@H](C)C(=O)N[C@H]1CN(S(=O)(=O)c2cccc(S(=O)(=O)N3CC[C@H]4CC[C@@H](C(=O)NC(c5ccccc5)c5ccccc5)N4C(=O)[C@@H](NC(=O)[C@H](C)NC)C3)c2)CC[C@H]2CC[C@@H](C(=O)NC(c3ccccc3)c3ccccc3)N2C1=O [Compound (I), (5S ,5′S ,8S ,8′S,10aR,10a′R)-3,3′-(1,3-phenylenedisulfonyl)bis(N-benzhydryl-5-((S)-2-(methylamino)propanamido)-6-oxodecahydropyrrolo[1,2-a][1,5]diazocine-8-carboxamide)]
Chronic HBV infections
  clearance of chronic HBV infections: can clear chronic HBV infections in different models
[1]; [5]
  Any Drug-Related TEAE (%): (66.7%)
  Any Drug-Related TEAE N: 2
  SAE (%): (0%)
  SAE N: 0
[1]; [6]
  Any Drug-Related TEAE (%): (33.3%)
  Any Drug-Related TEAE N: 3
  SAE (%): (0%)
  SAE N: 0
[1]; [7]
  Any Drug-Related TEAE (%): (100.0%)
  Any Drug-Related TEAE N: 6
  SAE (%): (0%)
  SAE N: 0
[1]; 30 mg cohort
  patients with grade 2 facial nerve disorder: 1 patient
[1]; 30 mg cohort, 1 patient
  time to recovery from grade 2 facial nerve disorder: ≤ 4 weeks
[1]; [8]
  Any Drug-Related TEAE (%): (83.3%)
  Any Drug-Related TEAE N: 5
  SAE (%): (16.7%)
  SAE N: 1
[1]; all cohorts 7-30 mg weekly IV
  drug-related adverse event: ALT increase, incidence: 26%
  drug-related adverse event: AST increase, incidence: 22%
  drug-related adverse event: infusion site pain, incidence: 15%
  drug-related adverse event: infusion site reaction, incidence: 15%
  drug-related adverse event: total bile acids increase, incidence: 15%
  patients with grade 3 ALT or AST elevation: Four
[1]; ascending doses from 7 mg to 30 mg
  safety and tolerability, overall: safe and well tolerated
[1]; the four patients with grade 3 elevation
  grade 3 ALT or AST elevation, extent: 5-15 × ULN
[2]; 7 mg weekly IV for 4 weeks, N = 3
  Fibro Test Score Changes from baseline to end of follow-up, Mean(SD): 0.27 kPa
[2]; 12 mg weekly IV for 4 weeks, N = 3
  Fibro Test Score Changes from baseline to end of follow-up, Mean(SD): −1.80 kPa
[2]; 20 mg weekly IV for 4 weeks, N = 6
  Fibro Test Score Changes from baseline to end of follow-up, Mean(SD): −0.33 kPa
[2]; 30 mg weekly IV for 4 weeks, N = 2
  Fibro Test Score Changes from baseline to end of follow-up, Mean(SD): −4.05 kPa
[2]; 10/22 patients
  patients with ALT normalization: 46%
[3]; 7, 12, 20, 30 mg weekly IV
  PK analysis: plasma exposure versus dose: dose proportional increase in plasma exposure
[3]; weekly IV for 4 weeks
  PK analysis: accumulation after multiple dosing: no accumulation after multiple dosing
[4]
  inhibition of IAPs: inhibits IAPs in vivo and in vitro
Hepatitis B virus (HBV); 5/26 patients
  patients with reduction of HBsAg at ≥0.5 log: 19%
Hepatitis B virus (HBV); 12/26 patients
  patients with reduction of HBsAg at ≥0.2 log: 46%
Hepatitis B virus (HBV); 23 of 26 patients
  patients with decline of HBV DNA: 89%
Hepatitis B virus (HBV); during post-treatment follow-up, 11/23 patients
  patients with prolonged HBsAg reduction: 48%
Hepatitis B virus (HBV); week 4, 17 of 26 patients
  patients with reduction of HBsAg: 65%
